Measured values published in PMC7815716, “Mechanistic basis of breast cancer resistance protein inhibition by new indeno[1,2-b]indoles” (Scientific Reports, 2021).
Several values for one entry are separate records, joined by “and”; a condition that tells them apart may be missing. Equal entries are not always repeated. Where two headings read alike, the source gives them in different places.

Experiments:
[1] = biological target: T1, ABCG2 (Homo sapiens, UniProt Q9UNQ0); test: Inhibition of ABCG2-mediated mitoxantrone efflux (flow cytometry); type: cell-based; design: expressed in transfected cells; host or cells: HEK293; conditions: for inhibition at 30 min: human, probe mitoxantrone (10 µM), from IC50 fitted curves, HEK293-ABCG2, mitoxantrone, 100% = Ko143 0.5 µM, read-out: IMAX (%) ± SD, maximal inhibition percentage; for TR, therapeutic ratio (IG50/IC50): ratio between IG50 and IC50 values
T1 sequence (Q9UNQ0 1-655): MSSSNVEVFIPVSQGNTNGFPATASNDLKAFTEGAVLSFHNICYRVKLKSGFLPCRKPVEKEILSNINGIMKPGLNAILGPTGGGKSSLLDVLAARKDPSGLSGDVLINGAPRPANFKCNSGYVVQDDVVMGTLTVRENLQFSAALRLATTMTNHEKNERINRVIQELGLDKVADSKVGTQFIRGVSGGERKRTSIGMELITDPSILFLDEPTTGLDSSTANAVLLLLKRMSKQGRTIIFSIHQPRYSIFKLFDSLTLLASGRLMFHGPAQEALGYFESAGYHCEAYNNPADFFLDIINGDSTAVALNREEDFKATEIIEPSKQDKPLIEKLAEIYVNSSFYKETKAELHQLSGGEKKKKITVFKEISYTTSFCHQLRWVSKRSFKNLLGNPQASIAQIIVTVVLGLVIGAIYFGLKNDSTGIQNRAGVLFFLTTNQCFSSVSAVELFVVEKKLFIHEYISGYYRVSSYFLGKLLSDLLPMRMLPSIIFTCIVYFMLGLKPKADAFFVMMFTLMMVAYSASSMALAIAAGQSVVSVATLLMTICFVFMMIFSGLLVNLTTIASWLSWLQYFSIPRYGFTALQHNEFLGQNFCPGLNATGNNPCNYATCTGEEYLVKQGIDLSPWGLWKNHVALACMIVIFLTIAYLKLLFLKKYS
Method: ABCG2 inhibition assays were carried out on HEK293 WT and HEK293-ABCG2 cells. Cells were seeded at the density of 1 × 10^5 cells/well in 24 well culture plates and incubated for 48 h at 37 °C under 5% CO2. Cells were treated with compounds and 10 μM of mitoxantrone for 30 min at 37 °C and 5% CO2. After incubation the cells were washed with PBS, trypsinized and resuspended in ice cold PBS. The intracellular drug fluorescence was monitored with a FACS Calibur cytometer (Becton Dickinson) using the FL4 channel, with at least 10,000 events collected. The maximal fluorescence (taken as 100%) was determined with the difference between the mean fluorescence of HEK-ABCG2 cells incubated with 0.5 μM Ko143 (ABCG2 reference inhibitor) or by using the HEK293 WT cell line as a control and cells without inhibitor (mitoxantrone alone). The percent of inhibition was determined as previously described. For bimodulation assays the cells were concomitantly treated with 10 μM of one or two combined inhibitors under similar conditions as described previously. For washing assays, cells were treated with 10 μM concentrations of compounds for 30 min. Then, the medium with the inhibitor was removed and the cells were washed with PBS and incubated only with culture medium for different periods of time (0.5 and 3 h). After incubation, cells were exposed to 5 µM mitoxantrone for 30 min, and then analyzed by flow cytometry. The percentage of transport inhibition was calculated by the following equation: %Inhibition=C-S/I-S×100 where “C” corresponds to the intracellular fluorescence of cells in the presence of the tested compounds and substrate (mitoxantrone to ABCG2, Rhodamine 123 to ABCB1 and calcein to ABCC1), “S” corresponds to the intracellular fluorescence of cells in the presence of substrate alone, and “I” corresponds to the intracellular fluorescence of cells in the presence of the substrate and reference inhibitor (Ko143 to ABCG2, GF120918 to ABCB1 and verapamil to ABCC1).

[2] = Intrinsic cytotoxicity of compounds, MTT assay; type: cell-based, human; conditions: human, HEK293 WT and HEK293-ABCG2 cells, MTT, read-out: IG50 (µM) ± SD, cytotoxicity (half-maximal cell viability)
Method: (§1) Cell viability was evaluated with a 3-(4,5-dimethylthiazol-2-yl)-2,5-diphenyltetrazolium bromide (MTT) colorimetric assay. HEK293 WT and HEK293-ABCG2 cells were seeded into 96-well culture plates at a 1.5 × 10^4 cells/well density. After overnight incubation, the cells were treated with various concentrations of compounds (0–100 µM) for 72 h at 37 °C under 5% CO2. […] Sensitization experiments were also carried out on H460 and H460MX20 cells. For these experiments, H460 and H460MX20 cells were seeded into 96-well culture plates at 1.0 × 10^4 cells/well density. […] After the treatment, the culture medium was removed and 100 μL of a 0.5 mg.mL^−1 MTT solution was added. Cells were then incubated for 4 h at 37 °C under 5% CO2. The formazan crystals were dissolved with a solution of DMSO/ethanol (1:1) and the absorbance was measured at 570 nm using a Multiscan FC microplate reader (Thermo Scientific). The results were expressed as percentage of viable cells versus control cells (0.1% DMSO, v/v) taken as 100%.

[3] = test system: ABCG2; design: method as in PMID 15930306; conditions: cited from earlier work
[4] = test system: ABCG2; conditions: cited from earlier work
[5] = test system: HEK293 WT cells; test: SN-38 cytotoxicity in control cells, MTT assay; type: cell-based, human
Method: as §1

[6] = biological target: T1, ABCG2; conditions: previously published data, cited from earlier work
[7] = HEK293-ABCG2 cells, mitoxantrone 10 µM, 30 min, read-out: IC50 (µM) ± SD, inhibition of ABCG2-mediated mitoxantrone efflux

COc1ccccc1CCn1c2c(c3c1-c1ccccc1C3=O)C(=O)CC(C)C2 (centres unmarked) [5a, 5-(2-Methoxyphenethyl)-7-methyl-5,6,7,8-tetrahydroindeno[1,2-b]indole-9,10-dione]
melting point: 204 °C
IC50 [1, 7]: 0.25 ± 0.01 µM
inhibition at 30 min ([1]; HEK293-ABCG2 cells): 72.5 ± 3.72%
TR, therapeutic ratio (IG50/IC50) [1]: > 393.60

O=C1c2ccccc2-c2c1c1c(n2CCc2ccccc2)CCC(Cc2ccccc2)C1=O (centres unmarked) [5b, 8-Benzyl-5-phenethyl-5,6,7,8-hexahydroindeno[1,2-b]indole-9,10-dione]
IC50 [1, 7]: 0.45 ± 0.1 µM
inhibition at 30 min ([1]; HEK293-ABCG2 cells): 113 ± 3.67%
TR, therapeutic ratio (IG50/IC50) [1]: 28.10

COc1ccc2[nH]cc(CCn3c4c(c5c3-c3ccccc3C5=O)C(=O)CCC4)c2c1 [5c, 5-(2-(5-Methoxy-1H-indol-3-yl)ethyl)-5,6,7,8-tetrahydroindeno[1,2-b]indole-9,10-dione]
melting point: 279 °C
IC50 [1, 7]: 0.65 ± 0.03 µM
inhibition at 30 min ([1]; HEK293-ABCG2 cells): 60 ± 4.04%
TR, therapeutic ratio (IG50/IC50) [1]: 56.41

COc1cccc(CCn2c3c(c4c2-c2cc(O)ccc2C4=O)C(=O)CCC3)c1 [5d, 3-Hydroxy-5-(3-methoxyphenethyl)-5,6,7,8-tetrahydroindeno[1,2-b]indole-9,10-dione]
melting point: 222 °C
IC50 [1, 7]: 2.71 ± 0.14 µM
inhibition at 30 min ([1]; HEK293-ABCG2 cells): 68.5 ± 0.68%
TR, therapeutic ratio (IG50/IC50) [1]: 9.85

CC1CC(=O)c2c3c(n(CCc4ccccc4)c2C1)-c1cccc(O)c1C3=O (centres unmarked) [5f, 1-Hydroxy-7-Methyl-5-phenethyl-5,6,7,8-tetrahydroindeno[1,2-b]indole-9,10-dione]
melting point: 246 °C
IC50 [1, 7]: 0.18 ± 0.02 µM
inhibition at 30 min ([1]; HEK293-ABCG2 cells): 48.4 ± 0.8%
TR, therapeutic ratio (IG50/IC50) [1]: 153.24

CC1CC(=O)c2c3c(n(CCc4ccccc4)c2C1)-c1c(O)cccc1C3=O (centres unmarked) [5g, 4-Hydroxy-7-methyl-5-phenethyl-5,6,7,8-tetrahydroindeno[1,2-b]indole-9,10-dione]
melting point: 283 °C
IC50 [1, 7]: 0.44 ± 0.03 µM
inhibition at 30 min ([1]; HEK293-ABCG2 cells): 65.2 ± 0.94%
TR, therapeutic ratio (IG50/IC50) [1]: 58.79

COc1ccccc1CCn1c2c(c3c1-c1cccc(O)c1C3=O)C(=O)CCC2 [5h, 1-Hydroxy-5-(2-methoxyphenethyl)-5,6,7,8-tetrahydroindeno[1,2-b]indole-9,10-dione]
melting point: 173 °C
IC50 [1, 7]: 0.42 ± 0.07 µM
inhibition at 30 min ([1]; HEK293-ABCG2 cells): 69.6 ± 1.14%
TR, therapeutic ratio (IG50/IC50) [1]: 57.21

COc1ccccc1CCn1c2c(c3c1-c1cccc(O)c1C3=O)C(=O)CC(C)C2 (centres unmarked) [5i, 1-Hydroxy-7-methyl-5-(2-methoxyphenethyl)-5,6,7,8-tetrahydroindeno[1,2-b]indole-9,10-dione]
IC50 at 72 h [2]: 20 µM
IC50 [1, 7]: 0.07 ± 0.02 µM
inhibition at 30 min ([1]; HEK293-ABCG2 cells): 62.83 ± 0.48%
TR, therapeutic ratio (IG50/IC50) [1]: 293.66

COc1ccccc1CCn1c2c(c3c1-c1cccc(OCC=C(C)C)c1C3=O)C(=O)CCC2 [5j, 5-(2-Methoxyphenethyl)-1-(3-methylbut-2-enyloxy)-5,6,7,8-tetrahydroindeno[1,2-b]indole-9,10-dione]
melting point: 118 °C
IC50 [1, 7]: 0.48 ± 0.08 µM
inhibition at 30 min ([1]; HEK293-ABCG2 cells): 85.6 ± 2.59%
TR, therapeutic ratio (IG50/IC50) [1]: 32.86

COc1ccccc1CCn1c2c(c3c1-c1c(OCC=C(C)C)cccc1C3=O)C(=O)CCC2 [5k, 5-(2-Methoxyphenethyl)-4-(3-methylbut-2-enyloxy)-5,6,7,8-hexahydroindeno[1,2-b]indole-9,10-dione]
IC50 [1, 7]: 0.92 ± 0.1 µM
inhibition at 30 min ([1]; HEK293-ABCG2 cells): 116 ± 2.36%
TR, therapeutic ratio (IG50/IC50) [1]: 22.85

COc1ccccc1CCn1c2c(c3c1-c1cccc(OCC=C(C)C)c1C3=O)C(=O)CC(C)C2 (centres unmarked) [5l, 5-(2-Methoxyphenethyl)-7-methyl-1-((3-methylbut-2-enyl)oxy)-5,6,7,8-tetrahydroindeno[1,2-b]indole-9,10-dione]
IC50 [1, 7]: 0.24 ± 0.03 µM
inhibition at 30 min ([1]; HEK293-ABCG2 cells): 82.3 ± 3.44%
TR, therapeutic ratio (IG50/IC50) [1]: 59.72

COc1ccccc1CCn1c2c(c3c1-c1c(OCC=C(C)C)cccc1C3=O)C(=O)CC(C)C2 (centres unmarked) [5m, 5-(2-Methoxyphenethyl)-7-methyl-4-((3-methylbut-2-enyl)oxy)-5,6,7,8-hexahydroindeno[1,2-b]indole-9,10-dione]
IC50 [1, 7]: 0.19 ± 0.07 µM
inhibition at 30 min ([1]; HEK293-ABCG2 cells): 87.4 ± 2.46%
TR, therapeutic ratio (IG50/IC50) [1]: 66.23

CC(C)=CCOc1cccc2c1-c1c(c3c(n1CCc1ccccc1)CC(C)CC3=O)C2=O (centres unmarked) [5n]
IC50 [1, 7]: 4.09 ± 0.56 µM
inhibition at 30 min ([1]; HEK293-ABCG2 cells): 133 ± 3.35%
TR, therapeutic ratio (IG50/IC50) [1]: 5.26

CC(C)=CCc1c(O)cc2oc(-c3ccccc3)cc(=O)c2c1O [6-prenylchrysin]
Maximal inhibition of ABCG2 [3]: approximately 70%

COc1cc2c(cc1OC)-c1c(c3c(O)cc(C)cc3n1CCc1ccccc1)C2=O [6e, 9-Hydroxy-2,3-dimethoxy-7-methyl-5-phenethylindeno[1,2-b]indol-10(5H)-one]
melting point: 198 °C
IC50 [1]: 0.2 ± 0.04 µM
inhibition at 30 min ([1]; HEK293-ABCG2 cells): 66.8 ± 1.79%
TR, therapeutic ratio (IG50/IC50) [1]: 212.38

COc1ccc2c3c([nH]c2c1)[C@H](CC(C)C)N1C(=O)[C@H](CCC(=O)OC(C)(C)C)NC(=O)[C@@H]1C3 [Ko143]
Effect on the ATPase activity of ABCG2 [4]: inhibit the ATPase activity

CCc1c2c(nc3ccc(O)cc13)-c1cc3c(c(=O)n1C2)COC(=O)[C@]3(O)CC [SN-38]
FR, fold reversal ([5]; SN-38 alone (reference)): 1.00
IC50 ([5]; SN-38 alone, 72 h, read-out: IG50 (SN-38 nM ± SD)): 0.00824 µM and 0.00753 µM and 0.01 µM and 0.00758 µM

O=C1c2c(O)ccc(O)c2C(=O)c2c(NCCNCCO)ccc(NCCNCCO)c21 [mitoxantrone]
Stimulation of the ATPase activity of ABCG2 [4]: 40%

CC1CC(=O)c2c3c(n(CCc4ccccc4)c2C1)-c1ccccc1C3=O (centres unmarked) [p4h]
TR, therapeutic ratio (IG50/IC50) [6]: > 435.00

COc1ccccc1CCn1c2c(c3c1-c1ccccc1C3=O)C(=O)CCC2 [p4j]
TR, therapeutic ratio (IG50/IC50) [6]: 130.00

COc1cccc(CCn2c3c(c4c2-c2ccccc2C4=O)C(=O)CCC3)c1 [p4k]
TR, therapeutic ratio (IG50/IC50) [6]: 41.00

Cc1cc(O)c2c3c(n(CCc4ccccc4)c2c1)-c1ccccc1C3=O [p5h]
TR, therapeutic ratio (IG50/IC50) [6]: 360.00
IC50 ([6]; read-out: IC50 (µM) ± SD, inhibition of ABCG2-mediated mitoxantrone efflux): 0.15 ± 0.01 µM

COc1cc2nc(N3CCN(C(=O)c4ccco4)CC3)nc(N)c2cc1OC [prazosin]
Stimulation of the ATPase activity of ABCG2 [4]: 100%
